The target of test [1] is Epidermal growth factor receptor [T790M,L858R] (Homo sapiens, UniProt P00533, L858R/T790M). The test is described as follows: Kinase Inhibition Assay.
Protocol: (§1) Then, it was diluted in DMSO with a 3-fold series gradient dilution for 10 times. […] The corresponding substrate and ATP were added and reacted at room temperature for 20 minutes (in which a negative and a positive control were set: the negative control is blank and the positive control is erlotinib). […] The inhibitions of the enzyme activity by the compounds at different concentrations were then fitted using Graphpad 5.0 software according to the four-parameter equation, and the IC50 values were calculated.
In test [2] the target is Epidermal growth factor receptor (Homo sapiens, UniProt P00533). The experiment in a line: Kinase Inhibition Assay.
Epidermal growth factor receptor, sequence (P00533 whole entry): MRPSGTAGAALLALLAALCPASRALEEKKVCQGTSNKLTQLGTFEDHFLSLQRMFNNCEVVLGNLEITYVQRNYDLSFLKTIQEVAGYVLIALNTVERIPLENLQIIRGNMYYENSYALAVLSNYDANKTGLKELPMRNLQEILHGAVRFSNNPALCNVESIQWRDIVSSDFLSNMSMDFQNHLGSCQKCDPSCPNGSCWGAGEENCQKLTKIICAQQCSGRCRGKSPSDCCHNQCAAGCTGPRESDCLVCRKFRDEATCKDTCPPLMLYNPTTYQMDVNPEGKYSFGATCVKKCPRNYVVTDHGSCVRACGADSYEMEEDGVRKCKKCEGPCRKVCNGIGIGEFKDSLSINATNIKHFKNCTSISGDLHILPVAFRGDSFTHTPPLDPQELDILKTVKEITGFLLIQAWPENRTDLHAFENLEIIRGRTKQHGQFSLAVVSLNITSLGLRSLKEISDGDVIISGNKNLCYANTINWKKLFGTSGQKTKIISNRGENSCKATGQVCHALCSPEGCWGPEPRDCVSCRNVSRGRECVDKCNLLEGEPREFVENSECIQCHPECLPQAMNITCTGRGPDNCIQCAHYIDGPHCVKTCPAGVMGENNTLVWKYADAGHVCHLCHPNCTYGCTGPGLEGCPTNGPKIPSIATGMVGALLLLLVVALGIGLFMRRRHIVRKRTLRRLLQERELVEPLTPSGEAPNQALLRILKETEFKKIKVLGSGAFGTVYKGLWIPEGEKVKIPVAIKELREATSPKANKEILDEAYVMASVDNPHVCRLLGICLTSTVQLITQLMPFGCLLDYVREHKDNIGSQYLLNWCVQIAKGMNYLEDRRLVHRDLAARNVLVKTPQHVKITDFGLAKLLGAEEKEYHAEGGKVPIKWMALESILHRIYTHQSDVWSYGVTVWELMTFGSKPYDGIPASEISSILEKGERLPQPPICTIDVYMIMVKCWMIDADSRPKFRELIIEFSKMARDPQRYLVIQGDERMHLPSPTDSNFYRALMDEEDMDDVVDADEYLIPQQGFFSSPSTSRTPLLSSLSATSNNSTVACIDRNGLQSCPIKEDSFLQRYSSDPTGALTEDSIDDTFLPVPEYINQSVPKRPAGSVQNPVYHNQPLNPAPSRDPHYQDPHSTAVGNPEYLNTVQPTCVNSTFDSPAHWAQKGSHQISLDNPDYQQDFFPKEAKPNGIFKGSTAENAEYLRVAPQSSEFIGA
Protocol: as §1

Epidermal growth factor receptor [T790M,L858R], sequence (P00533 25-1210 T790M/L858R limits assumed): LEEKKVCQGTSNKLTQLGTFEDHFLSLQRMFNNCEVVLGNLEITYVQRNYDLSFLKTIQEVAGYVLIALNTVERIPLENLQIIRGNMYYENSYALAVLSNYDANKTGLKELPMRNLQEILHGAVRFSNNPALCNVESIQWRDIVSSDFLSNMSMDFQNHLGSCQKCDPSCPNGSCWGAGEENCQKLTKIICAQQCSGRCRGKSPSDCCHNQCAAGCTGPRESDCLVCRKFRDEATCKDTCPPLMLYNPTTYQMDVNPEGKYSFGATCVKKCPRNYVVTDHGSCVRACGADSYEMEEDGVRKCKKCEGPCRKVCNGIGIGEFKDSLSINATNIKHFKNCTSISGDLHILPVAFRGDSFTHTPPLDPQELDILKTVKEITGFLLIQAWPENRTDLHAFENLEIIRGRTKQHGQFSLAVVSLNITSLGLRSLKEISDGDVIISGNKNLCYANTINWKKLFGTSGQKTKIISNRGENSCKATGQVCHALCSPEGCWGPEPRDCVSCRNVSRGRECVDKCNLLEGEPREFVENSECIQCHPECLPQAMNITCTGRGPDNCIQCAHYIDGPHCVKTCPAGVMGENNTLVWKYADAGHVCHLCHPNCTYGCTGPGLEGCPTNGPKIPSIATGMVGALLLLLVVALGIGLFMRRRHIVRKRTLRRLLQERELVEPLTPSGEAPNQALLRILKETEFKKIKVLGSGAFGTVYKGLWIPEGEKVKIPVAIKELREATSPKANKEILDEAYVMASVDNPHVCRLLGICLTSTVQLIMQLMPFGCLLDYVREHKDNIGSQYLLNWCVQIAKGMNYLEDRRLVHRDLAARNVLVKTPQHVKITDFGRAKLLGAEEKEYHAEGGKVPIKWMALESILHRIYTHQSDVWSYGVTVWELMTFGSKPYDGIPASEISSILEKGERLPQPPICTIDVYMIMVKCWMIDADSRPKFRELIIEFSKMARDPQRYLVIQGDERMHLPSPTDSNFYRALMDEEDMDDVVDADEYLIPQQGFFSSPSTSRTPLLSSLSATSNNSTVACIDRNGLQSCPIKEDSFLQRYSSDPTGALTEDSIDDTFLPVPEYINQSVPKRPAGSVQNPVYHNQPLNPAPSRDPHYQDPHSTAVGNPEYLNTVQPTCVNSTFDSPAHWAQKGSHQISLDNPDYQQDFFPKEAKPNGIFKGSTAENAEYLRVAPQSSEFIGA

With `C=CC(=O)Nc1cc(Nc2nccc(-c3cc(F)c4nc(C)n(C(C)C)c4c3)n2)c(OC)cc1OCCN(C)C` [US11111233, Example 12], the IC50 (as a rule, the concentration at which inhibition is half-maximal) in test [1] was below 0.001 µM.
As for `C=CC(=O)Nc1cc(Nc2nccc(-c3cc(F)c4nc(C)n(C(C)C)c4c3)n2)c(OC)cc1N1CCOCC1` [US11111233, Example 16], the concentration for half-maximal inhibition (IC50) in test [2] was above 0.1 µM.
